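Briefly, cells in 96-well plates were exposed to five compound concentrations for 48 h, and endpoints were estimated by linear interpolation. GI50 = concentration required for 50% inhibition of growth.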 Activity calls are given as the source filed them. Rule as the data show it: active = GI50 up to about 1.1 µM and inactive = higher.
Key:
Test in all cases: NCI anticancer screen, dose series, 48 h
786-0 = test system: 786-0
A549 = test system: A549
ACHN = test system: ACHN
CAKI-1 = test system: CAKI-1
CCRF-CEM = test system: CCRF-CEM
HL-60 = test system: HL-60
IGROV-1 = test system: IGROV-1
K562 = test system: K562
LOX IMVI = test system: LOX IMVI
MDA-N = test system: MDA-N
MOLT-4 = test system: MOLT-4
SF-539 = test system: SF-539
SK-MEL-28 = test system: SK-MEL-28
SN12C = test system: SN12C
T47D = test system: T47D
UACC-257 = test system: UACC-257
Malme-3M = test system: Malme-3M
OVCAR-4 = test system: OVCAR-4
RXF 393 = test system: RXF 393

Structure (SMILES)	GI50 (786-0)	GI50 (A549)	GI50 (ACHN)	GI50 (CAKI-1)	GI50 (CCRF-CEM)	GI50 (HL-60)	GI50 (IGROV-1)	GI50 (K562)	GI50 (LOX IMVI)	GI50 (MDA-N)	GI50 (MOLT-4)	GI50 (SF-539)	GI50 (SK-MEL-28)	GI50 (SN12C)	GI50 (T47D)	GI50 (UACC-257)	GI50 (Malme-3M)	GI50 (OVCAR-4)	GI50 (RXF 393)
CC1(C)CC(=O)c2c(nc3ccc4ccccc4c3c2-c2ccc(NC(=O)CCCCC(=O)Nc3ccc(-c4c5c(nc6ccc7ccccc7c46)CC(C)(C)CC5=O)cc3)cc2)C1	> 100 µM (inactive)	> 100 µM (inactive)	> 100 µM (inactive)	> 100 µM (inactive)	> 100 µM (inactive)	> 100 µM (inactive)	> 100 µM (inactive)	> 100 µM (inactive)	> 100 µM (inactive)	> 100 µM (inactive)	> 100 µM (inactive)	> 100 µM (inactive)	> 100 µM (inactive)	> 100 µM (inactive)	> 100 µM (inactive)	> 100 µM (inactive)	–	–	–
C=C(C)C12CC(COC(=O)c3ccccc3)C34OC5(OC1C3C1OC1(CO)C(O)C1(O)C(OC(=O)c3ccccc3)C(C)C(C(C)CCCCCCC5O)C14)O2 (configuration not stated)	> 61.8 µM (inactive)	–	24.3 µM (inactive)	56.5 µM (inactive)	26.4 µM (inactive)	–	> 72.8 µM (inactive)	< 0.01 µM (active)	66.5 µM (inactive)	25.9 µM (inactive)	–	> 70.3 µM (inactive)	> 49.5 µM (inactive)	37.8 µM (inactive)	> 87.9 µM (inactive)	49.3 µM (inactive)	25.2 µM (inactive)	> 100 µM (inactive)	52.6 µM (inactive)
CC(C)NCC(O)c1ccc(O)c2ncccc12 (configuration not stated)	45.5 µM (inactive)	6.82 µM (inactive)	42.3 µM (inactive)	64.9 µM (inactive)	–	24.6 µM (inactive)	33.5 µM (inactive)	19.5 µM (inactive)	30.3 µM (inactive)	91.2 µM (inactive)	18.2 µM (inactive)	43 µM (inactive)	> 100 µM (inactive)	30.3 µM (inactive)	33.8 µM (inactive)	50 µM (inactive)	–	68.5 µM (inactive)	91 µM (inactive)
Cc1ccc(C2(c3ccc(F)cc3)OC(=O)c3ccccc32)c(O)c1 (configuration not stated)	15.4 µM (inactive)	15.8 µM (inactive)	14.8 µM (inactive)	11.6 µM (inactive)	18.7 µM (inactive)	14 µM (inactive)	14.4 µM (inactive)	14.2 µM (inactive)	13.9 µM (inactive)	12 µM (inactive)	10.8 µM (inactive)	18.9 µM (inactive)	–	14.7 µM (inactive)	13.5 µM (inactive)	15.6 µM (inactive)	> 10 µM (inactive)	17 µM (inactive)	–
CCN(CC)CC1CN=C(N)O1 (configuration not stated)	> 100 µM (inactive)	> 100 µM (inactive)	> 100 µM (inactive)	> 100 µM (inactive)	> 100 µM (inactive)	–	> 100 µM (inactive)	> 100 µM (inactive)	> 100 µM (inactive)	> 100 µM (inactive)	> 100 µM (inactive)	> 100 µM (inactive)	> 100 µM (inactive)	> 100 µM (inactive)	> 100 µM (inactive)	> 100 µM (inactive)	–	> 100 µM (inactive)	> 100 µM (inactive)
Cc1cc2c(cc1-c1cc3c(cc1C)C(C(C)C)=C(O)C(=O)/C3=C\Nc1c3ccccc3nc3ccccc13)/C(=C/Nc1c3ccccc3nc3ccccc13)C(=O)C(O)=C2C(C)C	2.72 µM (inactive)	2.97 µM (inactive)	1.49 µM (inactive)	3.03 µM (inactive)	3.51 µM (inactive)	2.78 µM (inactive)	2.64 µM (inactive)	–	–	4.06 µM (inactive)	3.27 µM (inactive)	3.86 µM (inactive)	7.03 µM (inactive)	4.47 µM (inactive)	6.17 µM (inactive)	4.34 µM (inactive)	2.2 µM (inactive)	3.15 µM (inactive)	5.24 µM (inactive)
NS(=O)(=O)c1cccc(NC(=S)NC(=O)Nc2ccc(Cl)c(Cl)c2)c1	15.9 µM (inactive)	20.5 µM (inactive)	19.5 µM (inactive)	–	30.2 µM (inactive)	–	20 µM (inactive)	16.2 µM (inactive)	16.7 µM (inactive)	18.6 µM (inactive)	12 µM (inactive)	20 µM (inactive)	20.4 µM (inactive)	17.7 µM (inactive)	18.1 µM (inactive)	27.4 µM (inactive)	11.5 µM (inactive)	22.2 µM (inactive)	22.8 µM (inactive)
CC1=CC(=O)/C(=C/NC(=S)NCCc2ccccc2)C(=O)O1	31 µM (inactive)	> 100 µM (inactive)	> 100 µM (inactive)	> 100 µM (inactive)	–	> 100 µM (inactive)	> 100 µM (inactive)	–	30.1 µM (inactive)	> 100 µM (inactive)	> 100 µM (inactive)	> 100 µM (inactive)	> 100 µM (inactive)	> 100 µM (inactive)	> 100 µM (inactive)	> 100 µM (inactive)	–	> 100 µM (inactive)	–
NC(Cc1nnn[nH]1)C(=O)O (configuration not stated)	> 100 µM (inactive)	> 100 µM (inactive)	> 100 µM (inactive)	> 100 µM (inactive)	> 100 µM (inactive)	–	> 100 µM (inactive)	> 100 µM (inactive)	> 100 µM (inactive)	> 100 µM (inactive)	> 100 µM (inactive)	> 100 µM (inactive)	> 100 µM (inactive)	> 100 µM (inactive)	> 100 µM (inactive)	> 100 µM (inactive)	> 100 µM (inactive)	> 100 µM (inactive)	> 100 µM (inactive)
Nn1c(Cc2ccccc2)n[nH]c1=O	> 100 µM (inactive)	> 100 µM (inactive)	> 100 µM (inactive)	> 100 µM (inactive)	> 100 µM (inactive)	> 100 µM (inactive)	> 100 µM (inactive)	> 100 µM (inactive)	> 100 µM (inactive)	> 100 µM (inactive)	> 100 µM (inactive)	> 100 µM (inactive)	> 100 µM (inactive)	> 100 µM (inactive)	> 100 µM (inactive)	> 100 µM (inactive)	37.2 µM (inactive)	> 100 µM (inactive)	–
CCOC(=O)C1(Cc2ccccc2)Cc2cc3c(cc2C1)CCC3	38.1 µM (inactive)	36.8 µM (inactive)	38.7 µM (inactive)	39.5 µM (inactive)	16.5 µM (inactive)	23.8 µM (inactive)	39 µM (inactive)	22.5 µM (inactive)	18.8 µM (inactive)	31.1 µM (inactive)	17.5 µM (inactive)	39 µM (inactive)	38.8 µM (inactive)	33.3 µM (inactive)	26.7 µM (inactive)	40.7 µM (inactive)	29.6 µM (inactive)	35.7 µM (inactive)	–
CCN(CC)c1ccc(C2Nc3ccc4ccccc4c3C3=C2C(=O)CCC3)cc1 (configuration not stated)	19.4 µM (inactive)	26.7 µM (inactive)	12.2 µM (inactive)	33.7 µM (inactive)	> 100 µM (inactive)	–	–	> 100 µM (inactive)	–	> 100 µM (inactive)	> 100 µM (inactive)	13.1 µM (inactive)	> 100 µM (inactive)	42 µM (inactive)	39 µM (inactive)	> 100 µM (inactive)	> 100 µM (inactive)	14.9 µM (inactive)	17.3 µM (inactive)
